Columns and labels:
[1] = Aqueous solubility of compound at pH 1.4 after 18 to 24 hrs by RP-HPLC analysis; assay type: physicochemical
[2] = AUC (infinity) in healthy human at 100 mg, po administered with high fat meal; assay type: ADME, organism-based; design: dose 100 mg, route oral, time infinity; details: plasma
[3] = Half life in cynomolgus monkey at 1.3 mg/kg, iv; assay type: ADME, organism-based, Macaca fascicularis; design: dose 1.3 mg/kg, route intravenous; details: in vivo
[4] = AUC (infinity) in healthy human at 200 mg, po administered with high fat meal; assay type: ADME, organism-based; design: dose 200 mg, route oral, time infinity; details: plasma
[5] = Half life in beagle dog at 1.2 mg/kg, iv; assay type: ADME, organism-based, Canis lupus familiaris; design: dose 1.2 mg/kg, route intravenous; details: in vivo
[6] = Clearance in Sprague-Dawley rat at 1.4 mg/kg, iv; assay type: ADME, organism-based; design: dose 1.4 mg/kg, route intravenous; details: in vivo
Canis familiaris [7] = experiment: AUC (total) in beagle dog assessed as BMS-488043 level at 6.6 mg/kg, po; assay type: ADME, organism-based, Canis lupus familiaris, Plasma; design: dose 6.6 mg/kg, route oral; details: in vivo
[8] = Mean residence time in cynomolgus monkey at 1.3 mg/kg, iv; assay type: ADME, organism-based, Macaca fascicularis; design: dose 1.3 mg/kg, route intravenous; details: in vivo
[9] = Half life in healthy human at 200 mg, po administered with high fat meal; assay type: ADME, organism-based; details: in vivo
Cynomolgus monkey [10] = experiment: Tmax in cynomolgus monkey assessed as BMS-488043 level at 7.1 mg/kg, po; assay type: ADME, organism-based, Macaca fascicularis; design: dose 7.1 mg/kg, route oral; details: in vivo
[11] = Tmax in healthy human at 400 mg, po administered with high fat meal; assay type: ADME, organism-based; details: in vivo
[12] = Aqueous solubility of compound at pH 5.4; assay type: physicochemical
[13] = Half life in healthy human at 25 mg, po administered with high fat meal; assay type: ADME, organism-based; details: in vivo
[14] = Dissociation constant, pKa of compound; assay type: physicochemical
[15] = Volume of distribution at steady state in cynomolgus monkey at 1.3 mg/kg, iv; assay type: ADME, organism-based, Macaca fascicularis; design: dose 1.3 mg/kg, route intravenous; details: in vivo, read-out: Vdss
[16] = Plasma concentration in healthy human at 200 mg, po administered with high fat meal measured after 12 hrs; assay type: ADME, organism-based
[17] = Aqueous solubility of compound at pH 8.9; assay type: physicochemical
[18] = Half life in healthy human at 100 mg, po administered with high fat meal; assay type: ADME, organism-based; details: in vivo
[19] = Volume of distribution at steady state in Sprague-Dawley rat at 1.4 mg/kg, iv; assay type: ADME, organism-based; design: dose 1.4 mg/kg, route intravenous; details: in vivo, read-out: Vdss
Rattus norvegicus [20] = experiment: Cmax in Sprague-Dawley rat assessed as BMS-488043 level at 7.9 mg/kg, po; assay type: ADME, organism-based; design: dose 7.9 mg/kg, route oral; details: in vivo
[21] = Lipophilicity, log D of compound in octanol-PBS mixture at pH 6.5 by HPLC-UV analysis; assay type: physicochemical
[22] = Half life in Sprague-Dawley rat at 1.4 mg/kg, iv; assay type: ADME, organism-based; design: dose 1.4 mg/kg, route intravenous; details: in vivo
[23] = Cmax in healthy human at 50 mg, po administered with high fat meal; assay type: ADME, organism-based; design: dose 50 mg, route oral; details: in vivo
[24] = Cmax in healthy human at 400 mg, po administered with high fat meal; assay type: ADME, organism-based; design: dose 400 mg, route oral; details: in vivo
[25] = Plasma concentration in healthy human at 100 mg, po administered with high fat meal measured after 12 hrs; assay type: ADME, organism-based
[26] = Half life in healthy human at 50 mg, po administered with high fat meal; assay type: ADME, organism-based; details: in vivo
[27] = AUC (infinity) in healthy human at 800 mg, po administered with high fat meal; assay type: ADME, organism-based; design: dose 800 mg, time infinity, route oral; details: plasma
[28] = Mean residence time in beagle dog at 1.2 mg/kg, iv; assay type: ADME, organism-based, Canis lupus familiaris; design: dose 1.2 mg/kg, route intravenous; details: in vivo
[29] = Cmax in healthy human at 200 mg, po administered with high fat meal; assay type: ADME, organism-based; design: dose 200 mg, route oral; details: in vivo
Rattus norvegicus [30] = experiment: AUC (total) in Sprague-Dawley rat assessed as BMS-488043 level at 7.9 mg/kg, po; assay type: ADME, organism-based, Plasma; design: dose 7.9 mg/kg, route oral; details: in vivo
[31] = Cmax in healthy human at 800 mg, po administered with high fat meal; assay type: ADME, organism-based; design: dose 800 mg, route oral; details: in vivo
Plasma [32] = experiment: Plasma concentration in healthy human at 25 mg, po administered with high fat meal measured after 12 hrs; assay type: ADME, organism-based; details: in vivo, BLD = below limit of detection
[33] = Plasma concentration in healthy human at 400 mg, po administered with high fat meal measured after 12 hrs; assay type: ADME, organism-based
[34] = Tmax in healthy human at 100 mg, po administered with high fat meal; assay type: ADME, organism-based; details: in vivo
[35] = AUC (infinity) in healthy human at 25 mg, po administered with high fat meal; assay type: ADME, organism-based; design: dose 25 mg, time infinity, route oral; details: plasma
[36] = Cmax in healthy human at 100 mg, po administered with high fat meal; assay type: ADME, organism-based; design: dose 100 mg, route oral; details: in vivo
Rattus norvegicus [37] = experiment: Half life in Sprague-Dawley rat assessed as BMS-488043 level at 7.9 mg/kg, po; assay type: ADME, organism-based; design: dose 7.9 mg/kg, route oral; details: in vivo
Plasma [38] = experiment: Plasma concentration in healthy human at 50 mg, po administered with high fat meal measured after 12 hrs; assay type: ADME, organism-based; details: in vivo, BLD = below limit of detection
Cynomolgus monkey [39] = experiment: AUC (total) in cynomolgus monkey assessed as BMS-488043 level at 7.1 mg/kg, po; assay type: ADME, organism-based, Macaca fascicularis, Plasma; design: dose 7.1 mg/kg, route oral; details: in vivo
[40] = Half life in healthy human at 800 mg, po administered with high fat meal; assay type: ADME, organism-based; details: in vivo
Canis familiaris [41] = experiment: Absolute oral bioavailability in beagle dog assessed as BMS-488043 level at 6.6 mg/kg; assay type: ADME, organism-based, Canis lupus familiaris; details: in vivo
[42] = AUC (infinity) in healthy human at 50 mg, po administered with high fat meal; assay type: ADME, organism-based; design: dose 50 mg, time infinity, route oral; details: plasma
[43] = Tmax in healthy human at 800 mg, po administered with high fat meal; assay type: ADME, organism-based; details: in vivo
[44] = Volume of distribution at steady state in beagle dog at 1.2 mg/kg, iv; assay type: ADME, organism-based, Canis lupus familiaris; design: dose 1.2 mg/kg, route intravenous; details: in vivo, read-out: Vdss
[45] = Mean residence time in Sprague-Dawley rat at 1.4 mg/kg, iv; assay type: ADME, organism-based; design: dose 1.4 mg/kg, route intravenous; details: in vivo
[46] = AUC (infinity) in healthy human at 400 mg, po administered with high fat meal; assay type: ADME, organism-based; design: dose 400 mg, time infinity, route oral; details: plasma
[47] = Clearance in cynomolgus monkey at 1.3 mg/kg, iv; assay type: ADME, organism-based, Macaca fascicularis; design: dose 1.3 mg/kg, route intravenous; details: in vivo
[48] = Tmax in healthy human at 25 mg, po administered with high fat meal; assay type: ADME, organism-based; details: in vivo
Canis familiaris [49] = experiment: Half life in beagle dog assessed as BMS-488043 level at 6.6 mg/kg, po; assay type: ADME, organism-based, Canis lupus familiaris; design: dose 6.6 mg/kg, route oral; details: in vivo
Canis familiaris [50] = experiment: Tmax in beagle dog assessed as BMS-488043 level at 6.6 mg/kg, po; assay type: ADME, organism-based, Canis lupus familiaris; design: dose 6.6 mg/kg, route oral; details: in vivo
Rattus norvegicus [51] = experiment: Absolute oral bioavailability in Sprague-Dawley rat assessed as BMS-488043 level at 7.9 mg/kg; assay type: ADME, organism-based; details: in vivo
[52] = Half life in healthy human at 400 mg, po administered with high fat meal; assay type: ADME, organism-based; details: in vivo
[53] = Tmax in healthy human at 50 mg, po administered with high fat meal; assay type: ADME, organism-based; details: in vivo
Cynomolgus monkey [54] = experiment: Half life in cynomolgus monkey assessed as BMS-488043 level at 7.1 mg/kg, po; assay type: ADME, organism-based, Macaca fascicularis; design: dose 7.1 mg/kg, route oral; details: in vivo
[55] = Cmax in healthy human at 25 mg, po administered with high fat meal; assay type: ADME, organism-based; design: dose 25 mg, route oral; details: in vivo
Cynomolgus monkey [56] = experiment: Cmax in cynomolgus monkey assessed as BMS-488043 level at 7.1 mg/kg, po; assay type: ADME, organism-based, Macaca fascicularis; design: dose 7.1 mg/kg, route oral; details: in vivo
[57] = Clearance in beagle dog at 1.2 mg/kg, iv; assay type: ADME, organism-based, Canis lupus familiaris; design: dose 1.2 mg/kg, route intravenous; details: in vivo
Rattus norvegicus [58] = experiment: Tmax in Sprague-Dawley rat assessed as BMS-488043 level at 7.9 mg/kg, po; assay type: ADME, organism-based; design: dose 7.9 mg/kg, route oral; details: in vivo
Cynomolgus monkey [59] = experiment: Absolute oral bioavailability in cynomolgus monkey assessed as BMS-488043 level at 7.1 mg/kg; assay type: ADME, organism-based, Macaca fascicularis; details: in vivo
Canis familiaris [60] = experiment: Cmax in beagle dog assessed as BMS-488043 level at 6.6 mg/kg, po; assay type: ADME, organism-based, Canis lupus familiaris; design: dose 6.6 mg/kg, route oral; details: in vivo
[61] = Tmax in healthy human at 200 mg, po administered with high fat meal; assay type: ADME, organism-based; details: in vivo
[62] = Plasma concentration in healthy human at 800 mg, po administered with high fat meal measured after 12 hrs; assay type: ADME, organism-based

solubility [1]: 220 µg/mL | AUC(0-inf) [2]: 5730 ng·h/mL | half-life [3]: 60 min | AUC(0-inf) [4]: 14200 ng·h/mL | half-life [5]: 9 min | clearance [6]: 14 mL/min/kg | AUC (Canis familiaris [7]): 82.844 µM·h | MRT [8]: 10.8 min | half-life [9]: 402 min | Tmax (Cynomolgus monkey [10]): 49.8 min | Tmax [11]: 37.8 min | solubility [12]: > 12000 µg/mL | half-life [13]: 60 min | pKa [14]: 2.2 | Vd [15]: 0.048 L/kg | concentration at 12 h [16]: 33 ng/mL | solubility [17]: > 12000 µg/mL | half-life [18]: 114 min | Vd [19]: 0.12 L/kg | Cmax (Rattus norvegicus [20]): 3.94 µM | logD [21]: < -1 | half-life [22]: 9.6 min | Cmax [23]: 1370 ng/mL | Cmax [24]: 12900 ng/mL | concentration at 12 h [25]: 12 ng/mL | half-life [26]: 84 min | AUC(0-inf) [27]: 64100 ng·h/mL | MRT [28]: 4.2 min | Cmax [29]: 8420 ng/mL | AUC (Rattus norvegicus [30]): 13.168 µM·h | Cmax [31]: 26800 ng/mL | Cp (Plasma [32]): BLD | concentration at 12 h [33]: 59 ng/mL | Tmax [34]: 30 min | AUC(0-inf) [35]: 1160 ng·h/mL | Cmax [36]: 3650 ng/mL | t1/2 (Rattus norvegicus [37]): 90 min | Cp (Plasma [38]): BLD | AUC (Cynomolgus monkey [39]): 34.183 µM·h | half-life [40]: 660 min | F (Canis familiaris [41]): 93% | AUC(0-inf) [42]: 2150 ng·h/mL | Tmax [43]: 60 min | Vd [44]: 0.3 L/kg | MRT [45]: 8.4 min | AUC(0-inf) [46]: 26200 ng·h/mL | clearance [47]: 4.4 mL/min/kg | Tmax [48]: 30 min | t1/2 (Canis familiaris [49]): 246 min | Tmax (Canis familiaris [50]): 15 min | F (Rattus norvegicus [51]): 62% | half-life [52]: 780 min | Tmax [53]: 30 min | t1/2 (Cynomolgus monkey [54]): 288 min | Cmax [55]: 784 ng/mL | Cmax (Cynomolgus monkey [56]): 16.4 µM | clearance [57]: 70 mL/min/kg | Tmax (Rattus norvegicus [58]): 49.8 min | F (Cynomolgus monkey [59]): 67% | Cmax (Canis familiaris [60]): 14 µM | Tmax [61]: 30 min | concentration at 12 h [62]: 150 ng/mL
Structure (SMILES): COc1cnc(OC)c2c1c(C(=O)C(=O)N1CCN(C(=O)c3ccccc3)CC1)cn2COP(=O)(O)O.NCCCC[C@H](N)C(=O)O

Source: ChEMBL document CHEMBL2163239, “Inhibitors of human immunodeficiency virus type 1 (HIV-1) attachment 6. Preclinical and human pharmacokinetic profiling of BMS-663749, a phosphonooxymethyl prodrug of the HIV-1 attachment inhibitor 2-(4-benzoyl-1-piperazinyl)-1-(4,7-dimethoxy-1H-pyrrolo[2,3-c]pyridin-3-yl)-2-oxoethanone …” (J Med Chem, 2012)
